In patent US20090220421A1, “METHOD FOR SCREENING MTP-INHIBITING COMPOUNDS” (priority 2005, published 2009):

What was measured:
[1] = test system: apoB secretion in HepG2 cells; assay: Test C: inhibition of apoB secretion in the HepG2 human cell line (sandwich ELISA); assay type: cell-based; conditions: 24 hours incubation, read-out: IC50 (concentration that produces a 50% inhibition of apoB secretion in the HepG2 cells)
Experimental: Qualitative Analysis of the Secretion of apoB in the HepG2 Human Cell Line
The activity of a compound may be evaluated by measuring the inhibition of apoB secretion in HepG2 cells.
The HepG2 cells (ECACC-No. 85011430) are used as model in the study of the in vitro hepatic secretion of lipoproteins, as described by Dixon J. and Ginsberg H. (J. Lipid. Res., (1993), 34, 167-179).
The HepG2 cells are cultured in Dulbecco's modified Eagle's medium comprising 10% foetal calf serum (DMEM and FBS-Gibco) in 96-well plates under an atmosphere of 5% carbon dioxide for 24 hours (about 70% confluence).
The test compounds are dissolved at a concentration of 2 or 10 mM in dimethyl sulfoxide (DMSO). Serial dilutions (1:3.16) are made in DMSO and are added (1:200—Robot Multimek Beckman) to the growth medium (200 μl) and then finally incubated for 24 hours in the various wells containing the HepG2 cells.
The 24-hour culture supernatant diluted to 1:5 (phosphate-buffered saline: PBS comprising 1% bovine serum albumin) is tested according to a sandwich-ELISA method specific for human apoB.
The results, presented in Table II below for compounds 1 and 2, are expressed in terms of IC50, i.e. the concentration that produces a 50% inhibition of apoB secretion in the HepG2 cells.

[2] = test system: secretion of apoB by HepG2 cells; assay: Test Avitro: kinetics (reversibility) of inhibition of secretion of apoB by HepG2 cells; assay type: cell-based, human
Experimental: Analyse of the Kinetics (Reversibility) of Inhibition of Secretion of apoB by HepG2 Cells:
HepG2 cells are placed in contact with the products as described in the preceding paragraph and the secretion of ApoB is measured after 6 and 24 hours. The comparison is made at equipotent dose for the inhibition of secretion of apoB after 24 hours.
Next, the products are removed from the culture medium (during changes of the medium at 0, 6, 24 and 48 hours) and the secretion of ApoB is again measured to determine the kinetics for return to normal secretion. The reversibility is judged satisfactory if the secretion, 24 hours after removal of the products, has a value greater than or equal to 70% of that of the controls (blank cells without compound).

[3] = biological target: T1, microsomal triglyceride transfer protein (MTP) (Mesocricetus auratus, UniProt P55158); assay: Test B: qualitative analysis of the inhibition of MTP activity in vitro (labelled triglyceride transfer, SPA); assay type: biochemical, golden hamster; conditions: [3H]-triolein transfer from liposomes to LDL-biot, 18-24 hours at 37° C.; read-out: IC50 (concentration that allows a 50% inhibition of MTP)
T1 construct: The supernatant comprising the soluble MTP is dialysed; from tissue; host or cells: golden hamster liver microsomes, deoxycholate-solubilised supernatant
T1 sequence (P55158 19-895): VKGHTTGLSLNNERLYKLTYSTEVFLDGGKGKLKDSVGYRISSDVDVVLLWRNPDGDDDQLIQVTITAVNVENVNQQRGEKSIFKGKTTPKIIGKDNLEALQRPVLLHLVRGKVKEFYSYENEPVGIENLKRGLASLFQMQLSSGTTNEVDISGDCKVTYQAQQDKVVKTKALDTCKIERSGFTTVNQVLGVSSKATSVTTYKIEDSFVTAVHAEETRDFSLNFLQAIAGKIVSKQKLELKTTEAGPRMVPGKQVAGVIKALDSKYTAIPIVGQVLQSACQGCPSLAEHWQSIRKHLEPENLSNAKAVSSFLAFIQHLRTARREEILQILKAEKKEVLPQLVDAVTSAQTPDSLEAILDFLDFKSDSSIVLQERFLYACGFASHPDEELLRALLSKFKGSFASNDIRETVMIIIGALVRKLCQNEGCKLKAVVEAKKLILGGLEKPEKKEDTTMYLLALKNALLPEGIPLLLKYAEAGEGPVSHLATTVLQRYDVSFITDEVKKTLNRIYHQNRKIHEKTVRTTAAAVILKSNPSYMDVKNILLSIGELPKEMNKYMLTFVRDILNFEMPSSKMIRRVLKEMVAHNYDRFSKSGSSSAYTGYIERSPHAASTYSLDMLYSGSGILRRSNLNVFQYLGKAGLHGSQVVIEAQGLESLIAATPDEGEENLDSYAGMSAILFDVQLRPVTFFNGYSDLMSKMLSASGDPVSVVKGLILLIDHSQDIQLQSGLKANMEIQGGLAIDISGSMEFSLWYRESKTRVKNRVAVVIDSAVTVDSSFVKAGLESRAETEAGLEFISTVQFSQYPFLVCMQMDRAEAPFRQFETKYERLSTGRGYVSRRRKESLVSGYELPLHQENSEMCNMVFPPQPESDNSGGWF
Experimental: Qualitative Analysis of the Inhibition of Mtp Activity In Vitro
The inhibition of the activity of microsomal triglyceride transfer protein (MTP) was tested by using the following operating protocol.
The inhibition of MTP activity with a compound may be quantified by observing the inhibition of the transfer of a labelled triglyceride, from a donor particle to an acceptor particle, in the presence of MTP. The procedure for the preparation of MTP is based on the method by Wetterau and Zilversmit (Biochem. Biophys. Acta (1986) 875, 610). A few grams of golden hamster liver are taken and then rinsed several times in a 250 mM sucrose solution at 0° C. All the following steps proceed at +4° C. […]
The reaction mixture is prepared in untreated ½ well white plates (Corning Costar) by addition, in the following order, of: 5 μl of HEPES 50 mM, NaCl 150 mM, BSA 0.1% (w/v), 0.05% sodium azide (w/v), pH 7.4 buffer; 5 μl of liposomes; 5 μl of LDL-biot; 5 μl of test products in DMSO 5 μl of MTP. After incubation for 18-24 hours at 37° C., the reaction is stopped by adding 100 μl of Amersham SPA (Scintillation Proximity Assay) beads coupled to streptavidin, and the radioactivity is counted using a Top Count (Packard) machine at least one hour later. The inhibition of the transfer of the triglycerides with a compound is reflected by a reduction in the transferred radioactivity. […]

[4] = biological target: T2, MTP (Mesocricetus auratus, UniProt P55158); assay: Test D: MTP-inhibiting activity of the resynthesised metabolites; assay type: biochemical; conditions: MTP-inhibiting activity of metabolites M1, M2 of the compound
T2 sequence (P55158 19-895): T1 sequence (P55158 19-895)
Source text: Thus, Test A may also be preceded or followed, preferably followed, by one or more tests of inhibition of MTP and/or of inhibition of the secretion of VLDLs and/or of inhibition of the secretion of apoB, which are similar or even identical to the Tests B and/or C, respectively, defined above, but performed this time on the plasmatic metabolites of the candidate compounds. These tests on the metabolites will be referred to hereinbelow as Test D (metabolites/MTP inhibition test) and Test E (metabolites/apoB inhibition test).
(§1) Potential metabolites M1 and M2 (of the compounds 1 or 2, respectively) are identified, resynthesised and evaluated for their MTP-inhibiting activity.

[5] = test system: secretion of VLDL; assay: Test Avivo: duration of action of MTP inhibitors on the secretion of VLDL; assay type: in vivo, fatty fa/fa Zucker rats; conditions: between 6 and 8 hours after treatment
Experimental: Determination of the Duration of Action of MTP Inhibitors on the Secretion of VLDL
This test makes it possible to evaluate the kinetics of inhibition of MTP-inhibiting compounds on the secretion of VLDL in fatty fa/fa Zucker rats (10-12 weeks old), which is an animal model characterised by hypersecretion of VLDL. The intensity and duration of inhibition are measured via the triton technique described above over a period ranging up to 8 hours after administration of the products. Since the duration of action of a product depends both of the administered dose and on its intrinsic characteristics, it is determined at a dose of makes it possible to reach a maximum inhibition (Imax) of at least 50% over a significant time interval. The comparison of the profile of duration of action of two compounds that may have different potentials is thus performed at respective doses that allow similar Imax values to be obtained.

[6] = test system: secretion of VLDL (hepatic MTP); assay: Test F: inhibition of secretion of VLDL in rats (triton technique); assay type: in vivo, Male Wistar rats; conditions: 100 mg/kg orally, between 1 hour and 6 hours after treatment, relative to controls
Experimental: Inhibition of Secretion of VLDL in Rats:
The inhibition of hepatic MTP by compounds 1 and 2 was evaluated from their impact on the secretion of very low density lipoproteins (VLDLs). Male Wistar rats (220-280 g) receive a standard diet and water ad libitum. On the day of the experiment, the animals (n=7) are fasted and, one hour later, are treated with the compounds (100 mg/kg orally; excipient 0.5% methylcellulose). The secretion of VLDL is measured one hour after treatment, and for 5 hours, via the triton technique (WR 1339). When it is injected into the bloodstream, triton (400 mg/kg) prevents the catabolism of the VLDLs by inhibiting their lipolysis via lipoprotein lipase and by inhibiting their uptake by tissues. Measurement of the accumulation of triglycerides (TG) and of cholesterol, which is a component of VLDLs, thus makes is it possible to reveal the secretion of VLDL by the liver.
The effect of the product on the secretion of VLDL is thus evaluated between 1 hour and 6 hours after treatment at a dose of 100 mg/kg, i.e. between 0 and 5 hours after the intravenous injection of triton. Blood samples are taken at regular intervals under gaseous anaesthesia, to assay of the triglycerides and the cholesterol. […] The levels of inhibition relative to controls not treated with the compounds are determined, and the results are collated in Table V.

[7] = Test D: metabolisation/inactivation of the product in rodent liver microsomes; assay type: in vitro ADME; conditions: 0.5 mg/ml microsomes, 10 μM test product, 1 hour at 37° C., disappearance of parent by LC/MS/MS
Experimental: Metabolisation/Inactivation of the Product
The products are evaluated for their capacity to be inactivated rapidly in vitro. […] The incubation medium is prepared by mixing together the following constituents: NAD (1 mM), glucose 6 phosphate (5 mM), NADP (1 mM), glucose 6 phosphate dehydrogenase (1 IU/ml), bovine serum albumin (1 mg/ml), TRIS (10 mM pH=7.6), MgCl2 (5 mM).
A concentration of 0.5 mg/ml of microsomes (Biopredic) is placed in contact with 10 μM of test product. The mixture is incubated for 1 hour at 37° C. A fraction of the preparation is taken at the initial time, to which is added an equivalent volume of ethanol (quenching of the reaction by precipitation of the proteins). The same operation is repeated after 1 hour of incubation.
The samples obtained are centrifuged at 4000 rpm for 10 minutes, and the supernatant is analysed by LC/MS/MS. The percentage of disappearance of the parent product between T0 and T60 minutes is determined by calculating the areas of the chromatographic peaks.
as §1

## O=C(NC1CCN(Cc2cccnc2)CC1)c1ccccc1-c1ccc(C(F)(F)F)cc1 [Compound 1]
[1]
  IC50: 18 nM
[2]
  Secretion of apoB 24 hours after removal of the products (% of the controls): >85%
[3]
  IC50: 320 nM
[4]
  Activity of the metabolites: M1, M2 inactive
[5]
  residual inhibition of VLDL secretion: absence of significant residual inhibition
[6]
  Inhibition of secretion of VLDL-TG: −56%
  Inhibition of secretion of VLDL-cholesterol: −45%
[7]
  Metabolisation (%/hour): 88 %/hour
